Assays:
primary T cells = test: Stem cell memory T cell phenotype by flow cytometry (CD45RA+CD62L+); format: cell-based, human; details: CRISPR knockout, day 15 post-activation
Method: Primary T cells were activated as described (Example 3), transduced with a lentivirus encoding for either a shUSP16 or a non-targeting shRNA (Ctrl) and sorted for GFP on day 8. Cells were cultured in the presence of IL-2 and their phenotype was analyzed at day 20. Cells were stained for CD4-PerCP-5.5 or CD8-BV510, CD62L-Allophycocyanin, CD45RA-BV510 or PE-Cy7 (Biolegend). Naïve or stem cell memory T cells (TNa/SCM) were identified as Sytox^− GFP^+CD45RA^+CD62L^+. Number of TNa/SCM was calculated as (#CD4 or CD8 T cells*TNa/SCMpercentage)/100. Flow cytometry was performed on the MACQuant (Myltenyi Biotec) and the data analyzed with FlowJo (shCtrl vs shUSP CD4: 0.4978 vs 0.7915, p=0.0673 and CD8: 2.469 vs 4.984, p=0.00392, n=7). Downregulation of USP16 expression increases the number of CD4+CD45RA+CD62L+(FIG. 11A) and CD8+CD45RA+CD62L+(FIG. 11B) cells in culture by 1.7 (p=0.0205) and 1.9 (p=0.0097) times, respectively.
Primary T cells were activated as described (Example 3), transduced with a lentivirus encoding either a shUSP16 #1, shUSP16 #2 or a non-targeting shRNA (shCtrl) and cells were selected with puromycin at day 6. At day 15 cell were collected and analyzed by qPCR for the expression of LEF1 (FIG. 16A) and TCF7 (FIG. 16B), downstream regulators of the WNT pathway. At day 20, cells were stained for CD4-PE, CD8-BV510, CD62L-Allophycocyanin and CD45RA-APC-Cy7 (Biolegend). Stem cell memory T cells (Tscm) were identified as Sytox^− GFP^+CD45RA^+CD62L^+, central memory T cells (Tcm) as Sytox^−GFP^+CD45RA^−CD62L^+, effector memory T cells (Tem) as Sytox^−GFP^+CD45RA^−CD62L^−, and terminal effector T cell (Teff) as Sytox^−GFP^+CD45RA^+CD62L^− (FIG. 17A). Cells were gated on the CD8 population. The specific increase of Tscm was shown as phenotype ratio (FIG. 17B).
Primary T cells were activated as described (Example 3). At Day 6 post-activation, dynabeads were removed and T cells electroporated using the Neon Transfection System (ThermoFisher) with a 2.5:1 ratio sgRNA:Cas9. The experiment was performed following the protocol optimized for primary T cell by Synthego (CRISPR Editing Human Primary CD4+ T cells with RNPs using Neon Electroporation Protocol, 2018 version). The sgRNA used are the following: gUSP16 #1 5′-[…]-3′ (SEQ ID NO: 10) and gSynthego that comprises 3 different sgRNAs (gRNA-A: 5′-[…] 3′ (SEQ ID NO: 11); gRNA-B: 5′-[…]-3′ (SEQ ID NO: 12); gRNA-C: 5′-[…]-3′ (SEQ ID NO: 13)). Control T cells, identified as Mock, were electroporated but no Cas9:sgRNA mixture was added. […] At day 15 post-activation, cells were stained for CD4-PE, CD8-BV510, CD62L-Allophycocyanin and CD45RA-APC-Cy7 (Biolegend). Stem cell memory T cells (Tscm) were identified as Sytox^−GFP^+CD45RA^+CD62L^+ and graphed as ratio compared to mock cells (FIG. 22). The experiment was repeated using primary T cells obtained from buffy coats of 2 different healthy donors.
Primary T cells were activated as described (Example 3), transduced with a lentivirus encoding for either a CD19.CAR or a GD2.CAR co-expressing shUSP16 #1, shUSP16 #2 or a scrambled shRNA (Control). At day 15, GD2.CAR and CD19.CAR T cells were stained for EGFR-AF488 (R&D), CD3-PE, CD8-BV510, CD62L-Allophycocyanin and CD45RA-APC-Cy7 (Biolegend). Stem cell memory T cells (Tscm) were identified as FITC^+CD45RA^+CD62L^+, central memory T cells (Tcm) as FITC^+CD45RA^−CD62L^+, effector memory T cells (Tem) as FITC^+CD45RA^−CD62L^−, and terminal effector T cell (Teff) as FITC^+CD45RA^+CD62L^−. Cells were gated on the CD8 population. The specific increase of Tscm was shown as phenotype ratio (FIGS. 28A and 28B).

[1] = tested on: activated primary T cells; test: Navitoclax-induced cell death (Sytox-negative cell count after 72 hours); format: cell-based, human; details: Younger T cells (day 12) compared with Older T cells (day 24)
Method: Activated primary T cells were treated with the indicated amount of Navitoclax. Navitoclax is a senolytic drug selectively targeting senescent cells (Zhu et al., Aging Cell, 2016). After 72 hours, Sytox-negative T cells were counted by flow cytometry using MACSQuant (Myltenyi Biotec). […] In each experiment two different primary T cell cultures were tested for each condition (four replicas for each condition). DMSO is a negative control. Navitoclax (cat #HY-10087) was purchased from MCE. Primary T cells were activated as described (Example 3) and transduced with a lentivirus encoding either a shUSP16 or a non-targeting shRNA (shC). T cells were then treated with the indicated amount of Navitoclax. After 72 hours, Sytox-negative GFP+ cells were counted, and the numbers of dead cells were calculated as 100%−(#treated/#untreated) cells. Two different time points were tested (day 12, day 22) with two different primary T cell cultures (four replicas per each condition).

Molecule | stem cell memory T cells, ratio compared to mock cells (primary T cells) | sensitivity to Navitoclax-induced cell death [1]
gUSP16 #1: sgRNA 5′-UGGCGUCAGAUAGUGCUUCA-3′ (SEQ ID NO: 10), electroporated with Cas9 (listed as RNA, chemistry not given here) | 1.178 | 
CC1(C)CCC(c2ccc(Cl)cc2)=C(CN2CCN(c3ccc(C(=O)NS(=O)(=O)c4ccc(N[C@H](CCN5CCOCC5)CSc5ccccc5)c(S(=O)(=O)C(F)(F)F)c4)cc3)CC2)C1 [Navitoclax] |  | less sensitive
gSynthego: comprises 3 different sgRNAs (gRNA-A, gRNA-B, gRNA-C; SEQ ID NO: 11-13), electroporated with Cas9 (guide 1 GUGUGCAGACACAUUAGAAA; guide 2 UAUUGUCAGUCUUACAGUCU; guide 3 GUUUGGCUGUGUCUUAAAUG; listed as RNA, chemistry not given here) | 1.49 | 

Source: patent US20210290680A1, “METHODS AND COMPOSITIONS FOR MODULATING CELLULAR AGING” (Dorian Therapeutics, Inc., priority 2019, published 2021)
